Laboratory results from paper PMC7156458, “Synthetic biology based construction of biological activity-related library of fungal decalin-containing diterpenoid pyrones” (Nature Communications, 2020).

Target: Aβ42 (Homo sapiens, UniProt P05067)
Assay: Th-T (thioflavin-T) assay of Aβ42 aggregation
Assay type: biochemical
Details: for Th-T fluorescence, mean of three wells: compound at 50

Chain of Aβ42 (P05067 672-713): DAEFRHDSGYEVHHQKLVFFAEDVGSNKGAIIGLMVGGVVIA

Compound: C=C1CC[C@@H]2[C@](C)(CC[C@H]3O[C@H](C=C(C)C)C[C@@]23C)[C@@H]1Cc1c(OC)oc(CO)c(C(=O)OC)c1=O [Compound 21]
- Th-T fluorescence, mean of three wells (reading M54 of time course): 0.2222
- Th-T fluorescence, mean of three wells (reading M55 of time course): 0.2197
- Th-T fluorescence, mean of three wells (reading M56 of time course): 0.2209
- Th-T fluorescence, mean of three wells (reading M57 of time course): 0.2237
- Th-T fluorescence, mean of three wells (reading M58 of time course): 0.2252
- Th-T fluorescence, mean of three wells (reading M59 of time course): 0.2206
- Th-T fluorescence, mean of three wells (reading M60 of time course): 0.2276
- Th-T fluorescence, mean of three wells (reading M61 of time course): 0.2285
- Th-T fluorescence, mean of three wells (reading M62 of time course): 0.2296
- Th-T fluorescence of Aβ42 with compound, mean of three wells (Fig. 7a source data) (concentration 10, unit not given, time-course reading M129): 1.701
- Th-T fluorescence of Aβ42 with compound, mean of three wells (Fig. 7a source data) (concentration 10, unit not given, time-course reading M130): 1.706
- Th-T fluorescence of Aβ42 with compound, mean of three wells (Fig. 7a source data) (concentration 10, unit not given, time-course reading M131): 1.73
- Th-T fluorescence of Aβ42 with compound, mean of three wells (Fig. 7a source data) (concentration 10, unit not given, time-course reading M132): 1.6977
- Th-T fluorescence of Aβ42 with compound, mean of three wells (Fig. 7a source data) (concentration 10, unit not given, time-course reading M133): 1.7165
- Th-T fluorescence of Aβ42 with compound, mean of three wells (Fig. 7a source data) (concentration 10, unit not given, time-course reading M134): 1.726
- Th-T fluorescence of Aβ42 with compound, mean of three wells (Fig. 7a source data) (concentration 10, unit not given, time-course reading M135): 1.717
- Th-T fluorescence of Aβ42 with compound, mean of three wells (Fig. 7a source data) (concentration 10, unit not given, time-course reading M136): 1.738
- Th-T fluorescence of Aβ42 with compound, mean of three wells (Fig. 7a source data) (concentration 10, unit not given, time-course reading M137): 1.7043
- Th-T fluorescence of Aβ42 with compound, mean of three wells (Fig. 7a source data) (concentration 10, unit not given, time-course reading M138): 1.717
- Th-T fluorescence of Aβ42 with compound, mean of three wells (Fig. 7a source data) (concentration 10, unit not given, time-course reading M139): 1.708
- Th-T fluorescence of Aβ42 with compound, mean of three wells (Fig. 7a source data) (concentration 10, unit not given, time-course reading M140): 1.723
- Th-T fluorescence of Aβ42 with compound, mean of three wells (Fig. 7a source data) (concentration 10, unit not given, time-course reading M141): 1.719
- Th-T fluorescence of Aβ42 with compound, mean of three wells (Fig. 7a source data) (concentration 10, unit not given, time-course reading M142): 1.725
- Th-T fluorescence of Aβ42 with compound, mean of three wells (Fig. 7a source data) (concentration 10, unit not given, time-course reading M143): 1.723
- Th-T fluorescence of Aβ42 with compound, mean of three wells (Fig. 7a source data) (concentration 10, unit not given, time-course reading M144): 1.716
- Th-T fluorescence of Aβ42 with compound, mean of three wells (Fig. 7a source data) (concentration 10, unit not given, time-course reading M145): 1.741
- Th-T fluorescence of Aβ42 with compound, mean of three wells (Fig. 7a source data) (concentration 20, unit not given, time-course reading M129): 0.972
- Th-T fluorescence of Aβ42 with compound, mean of three wells (Fig. 7a source data) (concentration 20, unit not given, time-course reading M130): 0.9564
- Th-T fluorescence of Aβ42 with compound, mean of three wells (Fig. 7a source data) (concentration 20, unit not given, time-course reading M131): 0.9524
- Th-T fluorescence of Aβ42 with compound, mean of three wells (Fig. 7a source data) (concentration 20, unit not given, time-course reading M132): 0.9585
- Th-T fluorescence of Aβ42 with compound, mean of three wells (Fig. 7a source data) (concentration 20, unit not given, time-course reading M133): 0.9579
- Th-T fluorescence of Aβ42 with compound, mean of three wells (Fig. 7a source data) (concentration 20, unit not given, time-course reading M134): 0.9622
- Th-T fluorescence of Aβ42 with compound, mean of three wells (Fig. 7a source data) (concentration 20, unit not given, time-course reading M135): 0.9636
- Th-T fluorescence of Aβ42 with compound, mean of three wells (Fig. 7a source data) (concentration 20, unit not given, time-course reading M136): 0.9565
- Th-T fluorescence of Aβ42 with compound, mean of three wells (Fig. 7a source data) (concentration 20, unit not given, time-course reading M137): 0.947
- Th-T fluorescence of Aβ42 with compound, mean of three wells (Fig. 7a source data) (concentration 20, unit not given, time-course reading M138): 0.9539
- Th-T fluorescence of Aβ42 with compound, mean of three wells (Fig. 7a source data) (concentration 20, unit not given, time-course reading M139): 0.9666
- Th-T fluorescence of Aβ42 with compound, mean of three wells (Fig. 7a source data) (concentration 20, unit not given, time-course reading M140): 0.9636
- Th-T fluorescence of Aβ42 with compound, mean of three wells (Fig. 7a source data) (concentration 20, unit not given, time-course reading M141): 0.9513
- Th-T fluorescence of Aβ42 with compound, mean of three wells (Fig. 7a source data) (concentration 20, unit not given, time-course reading M142): 0.9675
- Th-T fluorescence of Aβ42 with compound, mean of three wells (Fig. 7a source data) (concentration 20, unit not given, time-course reading M143): 0.9558
- Th-T fluorescence of Aβ42 with compound, mean of three wells (Fig. 7a source data) (concentration 20, unit not given, time-course reading M144): 0.9694
- Th-T fluorescence of Aβ42 with compound, mean of three wells (Fig. 7a source data) (concentration 20, unit not given, time-course reading M145): 0.9486
- Th-T fluorescence of Aβ42 with compound, mean of three wells (Fig. 7a source data) (concentration 50, unit not given, time-course reading M129): 0.5005
- Th-T fluorescence of Aβ42 with compound, mean of three wells (Fig. 7a source data) (concentration 50, unit not given, time-course reading M130): 0.4954
- Th-T fluorescence of Aβ42 with compound, mean of three wells (Fig. 7a source data) (concentration 50, unit not given, time-course reading M131): 0.4987
- Th-T fluorescence of Aβ42 with compound, mean of three wells (Fig. 7a source data) (concentration 50, unit not given, time-course reading M132): 0.5011
- Th-T fluorescence of Aβ42 with compound, mean of three wells (Fig. 7a source data) (concentration 50, unit not given, time-course reading M133): 0.5033
- Th-T fluorescence of Aβ42 with compound, mean of three wells (Fig. 7a source data) (concentration 50, unit not given, time-course reading M134): 0.5026
- Th-T fluorescence of Aβ42 with compound, mean of three wells (Fig. 7a source data) (concentration 50, unit not given, time-course reading M135): 0.5014
- Th-T fluorescence of Aβ42 with compound, mean of three wells (Fig. 7a source data) (concentration 50, unit not given, time-course reading M136): 0.502
- Th-T fluorescence of Aβ42 with compound, mean of three wells (Fig. 7a source data) (concentration 50, unit not given, time-course reading M137): 0.5003
- Th-T fluorescence of Aβ42 with compound, mean of three wells (Fig. 7a source data) (concentration 50, unit not given, time-course reading M138): 0.5022
- Th-T fluorescence of Aβ42 with compound, mean of three wells (Fig. 7a source data) (concentration 50, unit not given, time-course reading M139): 0.5032
- Th-T fluorescence of Aβ42 with compound, mean of three wells (Fig. 7a source data) (concentration 50, unit not given, time-course reading M140): 0.5012
- Th-T fluorescence of Aβ42 with compound, mean of three wells (Fig. 7a source data) (concentration 50, unit not given, time-course reading M141): 0.504
- Th-T fluorescence of Aβ42 with compound, mean of three wells (Fig. 7a source data) (concentration 50, unit not given, time-course reading M142): 0.5037
